Legend:
Purkinje cells [1] = test: Lysosomal size by Lamp1 staining of Purkinje cells; assay type: in vivo, mouse; conditions: ASMko mice, 0.3 mg/kg every three days
Description: (§1) FIGS. 15A-15D show representative images of Purkinje cells from wildtype and ASMko mice treated or not treated with PF-04457845.
(§2) Treatment started at 7 weeks of age and continued for 8 weeks. PF-04457845 was dissolved in 0.9% NaCl and delivered through oral gavage at a dose of 0.3 mg/kg every three days. We chose this dose based on the studies published by Ahn et al., (J Pharm Exp Ther 2011). Control groups received same volume of 0.9% NaCl without PF-04457845.
(§3) Purkinje cell death was analyzed by Calbindin1 staining in the cerebellum of wt and ASMko treated or not with PF-04457845 (FIG. 15A). Loss of Purkinje cells was prominent in non-treated ASMko mice compared to wt. […] PF-04457845 treatment had no effect on Purkinje cell survival in wt mice. We also analyzed Lysosomal size by staining Purkinje cells of the cerebellum for Lamp1 expression in samples from wt and ASMko mice treated or not treated with PF-04457845 (FIG. 15B). Lysosomal size was increased by an average 45% in the non-treated ASMko compared to wt mice consistent with sphingomyelin accumulation in these organelles. This alteration was prevented to a significant extent (35%) in the ASMko mice treated with PF.

microglia = test: Microglia number and morphology by iba-1 immunofluorescence after 8-week treatment; assay type: in vivo, mouse; conditions: 0.3 mg/kg every three days
Description: Representative images of microglia stained for iba-1 (green) in the cerebellum, hippocampus and cortex of wt and ASMko mice treated or not with PF-04457845. […] Graphs show mean±SEM microglia number and cell body area (n=7, **p<0.01, *p<0.05).
as §2
Brain inflammation was determined by analysis of glial cells in the cerebellum, hippocampus and cortex. The number and morphology of microglia was analyzed by immunofluorescence staining with the marker iba-1 (FIG. 16). […] PF-04457845 treatment had no effect in microglia of wt mice. The amount of astrocytes was analyzed by immunofluorescence with the marker GFAP (FIG. 17). […] PF-04457845 treatment had no effect in astrocytes of wt mice (FIG. 17).

[2] = tested on: permeabilized ASMko neurons; test: Lysenin staining of SM in intracellular compartments of permeabilized ASMko neurons; assay type: cell-based, mouse; conditions: 1 hour at 50 μM (FIG. 9)
Description: Statistical significance Student's t-test, *P<0.05, n=3 independent cultures.
To determine whether SM hydrolysis induced by FAAH inhibitors was taking place not only at the cell surface, but also in intracellular compartments, we performed staining with lysenin, a worm toxin that specifically binds to SM, in permeabilized ASMko neurons non-treated or treated with anandamide, URB, PF-04457845 or JNJ for 1 hour at 50 μM.

wt and ASMko mice [3] = test: Weekly body weight during 8-week oral treatment; assay type: in vivo, mouse; conditions: 0.3 mg/kg oral gavage every three days, 8 weeks
Description: We divided wt and ASMko into four groups: wt, wt+FAAHi, ASMko, ASMko+FAAHi. Each group included 14 animals with females and males in equal proportions.
as §2
Behavioral analyses were performed in the last 2 weeks of treatment while still administering the drug. Then, half of the mice were sacrificed for biochemical and histological analysis and the other half continued receiving the treatment to monitor life span.

wt and ASMko mice [4] = test: Acute toxicity: sphingomyelin levels by enzymatic assay in brain areas and liver; assay type: in vivo, mouse; conditions: 48 hours
Description: We divided wt and ASMko mice of 4.5 months of age in six experimental groups: ASMko control (n=3), ASMko low dose (n=3), ASMko intermediate dose (n=3), ASMko high dose (n=3), wt control (n=3), wt high dose (n=3). PF-04457845, provided as powder, was dissolved in 0.9% NaCl and administered to mice through oral gavage. Vehicle groups received same volume of 0.9% NaCl.
Doses have been calculated taking into account that used in the study conducted in healthy humans (Li et al., Br J Clin Pharmacol 2011, 73:706-716). […] Estimating an average weight of 60 kg for an adult human the daily dose equals to 0.0083 mg/kg. This dose was very similar to that used in our first 8 week-long treatment with PF-04457845 in ASMko mice, which according to the formulas to calculate equivalence between humans and mice (Nair and Jacob J Basic Clin Pharma 2016, 7:27-31) corresponded to a daily HED dose of 0.0072 mg/kg. For this toxicity study we agreed to take into account the human dose: 0.0083 mg/kg. Formula conversion to mouse dose: HED (mg/kg)=Mouse dose (mg/kg)×mouseKm/Human Km).
Sphingomyelin levels were quantified by enzymatic assay in extracts from different brain areas (hippocampus, cerebellum and cortex) and from liver of wt and ASMko mice treated with PF-04457845 at 0.1 mg/kg, 1 mg/kg and 5 mg/kg or with vehicle (FIG. 26). The results confirmed the remarkable increase of sphingomyelin levels in the vehicle-treated ASMko mice with respect to wt at this advanced stage of the disease (168% in hippocampus, 170% in cerebellum, 139% in cortex and 216% in liver with respect to wt values considered 100%).

[5] = cited from earlier work
wt and ASMko mice [6] = test: Elevated Plus Maze test; assay type: in vivo, mouse; conditions: 0.3 mg/kg every three days
Description: (§4) FIGS. 13A-13C show the effect of PF-04457845 treatment on various behavioral functions. […] (n=14; **p<0.01, *p<0.05).
as §2
(§5) Mood alterations were monitored by the Tail Suspension Test (FIG. 13B) and by the Elevated Plus Maze test (FIG. 13C) that give an idea of depressive state and anxiety, respectively. […] PF-04457845 treatment had no effect in the behavior of wt mice.

Purkinje cells [7] = test: Purkinje cell death by Calbindin1 staining in the cerebellum; assay type: in vivo, mouse; conditions: 0.3 mg/kg every three days
Description: as §1, §2, §3

wt and ASMko mice [8] = test: Tail Suspension Test; assay type: in vivo, mouse; conditions: 0.3 mg/kg every three days
Description: as §4, §2, §5

[9] = ASMko mice, single dose of 5 mg/kg
[10] = wt mice, single dose of 5 mg/kg

## O=C(Nc1cccnn1)N1CCC(=Cc2cccc(Oc3ccc(C(F)(F)F)cn3)c2)CC1 [PF-04457845]
Purkinje cells [1]
  increase of lysosomal size prevented (Lamp1): 35%
microglia; ASMko mice
  microglia amoeboid morphology in the hippocampus and cerebellum: normalized to a significant extent
  microglia morphology in cerebellum (iba-1): normalized their morphology
  microglia number in cerebellum (iba-1): reduced microglia number
microglia; wt mice
  microglia: no effect
[2]
  SM levels in intracellular compartments (lysenin staining): significantly reduced SM levels
Wt and ASMko mice [3]; ASMko mice
  body weight gain: significantly improved
Wt and ASMko mice [3]; wt mice
  body weight gain: not affected
Wt and ASMko mice [4]; [9]
  sphingomyelin levels in hippocampus: high variability
  sphingomyelin levels reduced in cerebellum: 21%
  sphingomyelin levels reduced in cortex: 8%
  sphingomyelin levels reduced in liver: 6%
Wt and ASMko mice [4]; single dose of 0.1 mg/kg
  reduction of sphingomyelin in brain areas and liver: No statistically significant reduction
Wt and ASMko mice [4]; single dose of 1 mg/kg
  reduction of sphingomyelin in brain areas and liver: No statistically significant reduction
Wt and ASMko mice [4]; [10]
  sphingomyelin levels reduced in cerebellum: 17%
  sphingomyelin levels reduced in cortex: 23%
  sphingomyelin levels reduced in hippocampus: 13%
  sphingomyelin levels reduced in liver: 34%
[5]; Li et al., 2011
  tolerability of much higher doses in healthy humans: well tolerated
[5]; Ling et al., BJCP 2011
  safety in healthy humans: safety in healthy humans has been already demonstrated
[5]; once daily, healthy humans, Li et al., Br J Clin Pharmacol 2011
  dose sufficient, well tolerated and providing maximal effects on FAAH activity and fatty acid amide elevation: 0.5 mg
Wt and ASMko mice [6]; ASMko mice
  behavior in Elevated Plus Maze test (anxiety): normalized
Wt and ASMko mice [6]; wt mice
  behavior in Elevated Plus Maze test: no effect
Purkinje cells [7]; ASMko mice, cerebellum
  Purkinje cell death (Calbindin1): prevented cell death in a significant percentage of cells
Purkinje cells [7]; wt mice
  Purkinje cell survival: no effect
Wt and ASMko mice [8]; ASMko mice
  behavior in Tail Suspension Test (depressive state): normalized
Wt and ASMko mice [8]; wt mice
  behavior in Tail Suspension Test: no effect
